According to patent US8367666B2 (priority 2004, dated 2013):
Read-outs that look alike come from different tables or passages of the source.

How the values were obtained:
[1] = tested on: scratching action induced by Compound 48/80; test: Anti-pruritic activity test by application (Compound 48/80 scratching); format: in vivo, mouse (Crj:CD-1 (ICR)); settings: topical, read-out: Itching inhibition ratio % (Concentration %)
Method: 1) Preparation of the compound and the reagent: The compound being tested was dissolved in acetone (SIGMA). Compound 48/80 (SIGMA) was dissolved in physiological saline (m by Otsuka Pharmaceutical Co., Ltd.) so as to be 60 μg/mL.
2) Animals: Female Crj: CD-1 (ICR) mice of 6 to 10 age in week (Japan Charles Liver) were used as laboratory animals. The animals were fed in the barrier breeding room where […] in room temperature, 30 to 70% in humidity, and the light and shade condition existed every 12 hours and feed (CE-2: Japan Crea) and the drinking water were freely taken. The hair of dorsa (from the cervical region of the back to the center of the back) of the animals were cut with a hair clipper two days or more before the anti-pruritic activity is evaluated, those with no wound, rubefaction, and thickening of the skin on the dehaired part were chosen and supplied to the experiment on the day of the evaluation. 3) Evaluation procedures: The acetone solution of the compound being tested was applied by 50 μL on the dehaired parts of the mice with a pipeter. On the mice of the control group, 50 μL of acetone was applied. The 15 minutes later, 50 μL (corresponding to 3 μg) of Compound 48/80 solution was injected intradermally in the compound applied parts with the use of a injector (Terumo Corporation), the mice were individually put in five observation cages made of acrylate resin at once, and the scratching action (action of scratching the injection part by the hind leg) frequency during 30 minutes was measured. The evaluation was carried out in one group of 5 to 7 mice. 4) Data processing: The experiment results were shown by the mean values. The test of the significant difference of the compound applying group to the control group was conducted with Welch's t-test, and p<0.05 was assumed to be significant.

CB1 receptor [2] = target: T1, CB1 receptor (Homo sapiens, UniProt P21554); test: cAMP formation inhibition experiment through a cannabinoid receptor (forskolin stimulation), CB1; format: cell-based; design: expressed in transfected cells; host or cells: CHO cells
T1 sequence (P21554 whole entry): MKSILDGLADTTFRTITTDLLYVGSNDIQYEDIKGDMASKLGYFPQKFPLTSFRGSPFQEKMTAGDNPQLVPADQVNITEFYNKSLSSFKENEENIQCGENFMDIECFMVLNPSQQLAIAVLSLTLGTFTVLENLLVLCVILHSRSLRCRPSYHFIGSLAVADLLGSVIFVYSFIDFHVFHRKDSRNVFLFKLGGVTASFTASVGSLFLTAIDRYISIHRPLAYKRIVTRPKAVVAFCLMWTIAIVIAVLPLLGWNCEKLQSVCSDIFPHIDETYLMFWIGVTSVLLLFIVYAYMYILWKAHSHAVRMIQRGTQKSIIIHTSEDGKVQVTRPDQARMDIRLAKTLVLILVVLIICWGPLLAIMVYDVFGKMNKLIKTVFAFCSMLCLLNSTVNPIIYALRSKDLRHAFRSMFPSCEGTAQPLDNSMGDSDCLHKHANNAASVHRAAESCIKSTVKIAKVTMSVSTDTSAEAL
Method: A compound being tested was added in the CHO cell which had mad human CB1 or CB2 receptor reveal and incubated for 15 minutes, and then forskolin (the final concentration 4 μM, and manufactured by SIGMA Corp.) was added and the mixture was incubated for 20 minutes. After the reaction had been stopped by adding 1M hydrochloric acid, the amount of cAMP in the supernatant was measured with the use of Cyclic AMP kit (made by the CIS Diagnostic Corp.).

CB2 receptor [3] = target: T2, CB2 receptor (Homo sapiens, UniProt P34972); test: cAMP formation inhibition experiment through a cannabinoid receptor (forskolin stimulation), CB2; format: cell-based; design: expressed in transfected cells; host or cells: CHO cells
T2 sequence (P34972 whole entry): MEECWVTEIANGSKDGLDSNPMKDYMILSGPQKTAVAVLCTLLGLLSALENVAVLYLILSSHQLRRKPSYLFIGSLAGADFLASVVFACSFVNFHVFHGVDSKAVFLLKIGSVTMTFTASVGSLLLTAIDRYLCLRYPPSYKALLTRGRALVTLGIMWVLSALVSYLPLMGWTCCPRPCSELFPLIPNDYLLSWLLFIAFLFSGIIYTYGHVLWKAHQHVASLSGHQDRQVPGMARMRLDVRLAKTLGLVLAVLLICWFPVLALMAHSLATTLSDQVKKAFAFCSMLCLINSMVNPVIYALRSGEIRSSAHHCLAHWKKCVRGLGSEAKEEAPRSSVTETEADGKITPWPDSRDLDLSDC

CB2 receptor [4] = target: T2, CB2 receptor; test: Human cannabinoid receptor bonding inhibition test ([3H]CP55940), CB2; format: binding; design: expressed in transfected cells; membrane fraction
CB1 receptor [5] = target: T1, CB1 receptor; test: Human cannabinoid receptor bonding inhibition test ([3H]CP55940), CB1; format: binding; design: expressed in transfected cells; membrane fraction
[6] = read-out: Agonist activity (nM) CB1
[7] = [3H]CP55940 0.5 nM, membrane preparation of CHO cells expressing CB1, Ki calculated from IC50, read-out: Binding activity (nM) CB1
[8] = read-out: Agonist activity (nM) CB2
[9] = read-out: Binding activity (nM) CB1
[10] = inhibition of forskolin (4 μM)-stimulated cAMP formation, CHO cells expressing human CB2, read-out: Agonist activity (nM) CB2

Row | SMILES | inhibition in vivo at 0.5 % ([1]; Mus musculus) | IC50 (CB1 receptor [2]; [6]) | IC50 (CB2 receptor [3]) | Ki (CB2 receptor [4]) | Ki (CB1 receptor [5]) | IC50 (CB1 receptor [2]) | Ki (CB1 receptor [5]; [7]) | other results
1 | COCCn1c2c(cc(C(=O)NC3(CC(=O)O)CCCC3)c1=O)CCCCCC2 [XI-035] | 69% | > 2000 nM | 47 nM | 31 nM | > 2000 nM | – | – | –
2 | CC(C)C[C@@H](CC(=O)O)NC(=O)c1cc2c(n(Cc3ccc(F)cc3)c1=O)CCCCCC2 [II-078] | – | – | < 2 nM | 27 nM | – | 252 nM | 1450 nM | inhibition in vivo at 3 % ([1]; Mus musculus): 94%
3 | CC(C)(NC(=O)c1cc2c(n(CC3CCCCC3)c1=O)CCCCCC2)C(=O)NNC(=O)c1cccnc1 [Compound I-556] | – | 357 nM | 3.5 nM | < 2 nM | 8.1 nM | – | – | inhibition in vivo at 3 % ([1]; Mus musculus): 76%
4 | CC[C@@H](C)[C@H](NC(=O)c1cc(C)c(C)n(CC2CCCCC2)c1=O)C(=O)OC [Compound I-089] | 65% | < 2 nM | < 2 nM | < 2 nM | < 2 nM | – | – | –
5 | CC(C)(CCNC(=O)c1cc2c(n(CC3CCCCC3)c1=O)CCCCCC2)C(=O)O [III-017] | – | – | 35 nM | 15 nM | – | 322 nM | 149 nM | inhibition in vivo at 3 % ([1]; Mus musculus): 76%
6 | CC(C)(NC(=O)c1cc2c(n(CC3CCCCC3)c1=O)CCCCCC2)C(=O)N1CCC(C(=O)N2CCCCC2)CC1 [Compound I-601] | – | 186 nM | 6.3 nM | 3.9 nM | 47 nM | – | – | inhibition in vivo at 1 % ([1]; Mus musculus): 67%
7 | CC(C)C[C@@H](CC(=O)O)NC(=O)c1cc2c(n(CC3CCCCC3)c1=O)CCCCCC2 [II-069] | – | 5.6 nM | 2.1 nM | 3.4 nM | 88 nM | – | – | inhibition in vivo at 3 % ([1]; Mus musculus): 84%
8 | CNC(=O)CNC(=O)C(C)(C)NC(=O)c1cc2c(n(CC3CCCCC3)c1=O)CCCCCC2 [Compound I-590] | – | 51 nM | 2.4 nM | 16 nM | 66 nM | – | – | inhibition in vivo at 3 % ([1]; Mus musculus): 75%
9 | CC(C)(NC(=O)c1cc2c(n(CC3CCCCC3)c1=O)CCCCCC2)C(=O)N1CCC(C(=O)N2CCOCC2)CC1 [Compound I-617] | – | 79 nM | 18 nM | 6.6 nM | 295 nM | – | – | inhibition in vivo at 1 % ([1]; Mus musculus): 96%
10 | CCCCn1c(CCC)c(CC)cc(C(=O)NC2(C(=O)O)CCCCC2)c1=O [Compound I-411] | 80% | – | – | – | – | > 2000 nM | – | IC50 (CB2 receptor [3]; [8]): 556 nM; Ki (CB2 receptor [4]; read-out: Binding activity (nM) CB2): 382 nM; Ki (CB1 receptor [5]; [9]): > 2000 nM
11 | CCCC(CC(=O)O)NC(=O)c1cc2c(n(CC3CCCCC3)c1=O)CCCCCC2 (stereo not drawn) [Compound X-66] | – | – | 50 nM | 92 nM | – | 549 nM | > 2000 nM | inhibition in vivo at 1 % ([1]; Mus musculus): 71%
12 | COC(=O)[C@@H](NC(=O)c1cc(C)c(C)n(Cc2ccc(F)cc2)c1=O)C(C)C [Compound I-094] | 60% | 9 nM | < 2 nM | < 2 nM | < 2 nM | – | – | –
13 | CCS(=O)(=O)NNC(=O)C(C)(C)NC(=O)c1cc2c(n(CC3CCCCC3)c1=O)CCCCCC2 [Compound I-596] | – | – | 30 nM | 22 nM | – | 312 nM | 341 nM | inhibition in vivo at 3 % ([1]; Mus musculus): 60%
14 | CCc1c(C)cc(C(=O)NC(CC)(CC)CC(=O)O)c(=O)n1Cc1ccc(F)cc1 [Compound X-216] | – | – | 30 nM | 3.3 nM | – | > 2000 nM | 1770 nM | inhibition in vivo at 1 % ([1]; Mus musculus): 106%
15 | O=C(O)CCc1csc(NC(=O)c2cc3c(n(CC4CCCCC4)c2=O)CCCCCC3)n1 [Compound X-64] | – | – | – | – | – | – | 580 nM | inhibition in vivo at 1 % ([1]; applied as acetone solution 50 μL, concentration 1.0%, mouse, Compound 48/80): 99%; IC50 (CB1 receptor [2]; inhibition of forskolin (4 μM)-stimulated cAMP formation, CHO cells expressing human CB1, read-out: Agonist activity (nM) CB1): 454 nM; IC50 (CB2 receptor [3]; [10]): 15 nM; Ki (CB2 receptor [4]; [3H]CP55940 0.5 nM, membrane preparation of CHO cells expressing CB2, Ki calculated from IC50, read-out: Binding activity (nM) CB2): 18 nM
16 | CC(C)(NC(=O)c1cc2c(n(CC3CCCCC3)c1=O)CCCCCC2)C(=O)N1CCC(C(=O)NNS(C)(=O)=O)CC1 [Compound I-606] | – | 118 nM | 8.7 nM | 4.4 nM | 60 nM | – | – | inhibition in vivo at 1 % ([1]; Mus musculus): 86%

Row | SMILES | inhibition in vivo at 0.5 % ([1]; Mus musculus) | IC50 (CB1 receptor [2]; [6]) | IC50 (CB2 receptor [3]) | Ki (CB2 receptor [4]) | Ki (CB1 receptor [5]) | IC50 (CB1 receptor [2]) | Ki (CB1 receptor [5]; [7]) | other results
17 | O=C(O)CC(NC(=O)c1cc2c(n(CC3CCCCC3)c1=O)CCCCCC2)C(F)(F)F (stereo not drawn) [II-076] | – | – | 1.2 nM | 41 nM | – | > 2000 nM | > 2000 nM | inhibition in vivo at 3 % ([1]; Mus musculus): 86%
18 | COC(=O)C(C)(C)NC(=O)c1cc2c(n(CC3CCCCC3)c1=O)CCCCCC2 [Compound I-084, methyl 2-[(1-cyclohexylmethyl-2-oxo-1,2,5,6,7,8,9,10-octahydro-cycloocta[b]pyridine-3-carbonyl]-amino}-2-methyl-propionate] | – | < 2 nM | < 2 nM | < 2 nM | < 2 nM | – | – | inhibition in vivo at 0.1 % ([1]; Mus musculus): 60%
19 | O=C(O)Cc1cnc(NC(=O)c2cc3c(n(CCCC(F)(F)F)c2=O)CCCCCC3)s1 [Compound X-115] | 67% | – | 8.6 nM | 3.3 nM | – | > 2000 nM | 1220 nM | –
20 | O=C(O)Cc1nsc(NC(=O)c2cc3c(n(CC4CCCCC4)c2=O)CCCCCC3)n1 [Compound X-21] | – | – | 30 nM | 3.3 nM | – | > 2000 nM | 1770 nM | inhibition in vivo at 1 % ([1]; Mus musculus): 106%
21 | O=C(N[C@H](C(=O)O)c1ccccc1)c1cc2c(n(CC3CCCCC3)c1=O)CCCCCC2 [Compound I-402] | – | – | – | < 2 nM | – | – | 34 nM | inhibition in vivo at 3 % ([1]; Mus musculus): 59%; IC50 (CB2 receptor [3]; [10]): 5.7 nM
22 | CC(C)CCn1c2c(cc(C(=O)NC(C(=O)O)c3cccs3)c1=O)CCCCCC2 (stereo not drawn) [Compound I-551] | – | 135 nM | < 2 nM | 2.2 nM | 50 nM | – | – | inhibition in vivo at 2 % ([1]; Mus musculus): 51%
23 | O=C(O)Cc1csc(NC(=O)c2cc3c(n(CC4CCCCC4)c2=O)CCCCCC3)c1 [IV-029] | – | – | 22 nM | 43 nM | – | 606 nM | 1320 nM | inhibition in vivo at 1 % ([1]; Mus musculus): 93%
24 | O=C(O)COc1ccc(NC(=O)c2cc3c(n(CC4CCCCC4)c2=O)CCCCCC3)cc1 [Compound X-220] | 97% | – | – | 18 nM | – | 1550 nM | – | IC50 (CB2 receptor [3]; [8]): 231 nM; Ki (CB1 receptor [5]; [9]): 555 nM
25 | CCOC(=O)C1CCCCC1NC(=O)c1cc2c(n(CCCNC(C)=O)c1=O)CCCCCC2 (stereo not drawn) [II-031] | – | – | 9.9 nM | 2.5 nM | > 2000 nM | – | – | inhibition in vivo at 2 % ([1]; Mus musculus): 55%
26 | CCc1c(C)cc(C(=O)N[C@H](C(=O)OC)C(C)C)c(=O)n1Cc1ccc(F)cc1 [Compound I-196] | 47% | < 2 nM | – | < 2 nM | < 2 nM | – | – | –
27 | CCCCn1c2c(cc(C(=O)NC3(C(=O)OC)CCCCC3)c1=O)CCCCCC2 [Compound I-124] | 49% | < 2 nM | – | < 2 nM | 3.6 nM | – | – | –
28 | O=C(NC(C(=O)O)c1ccco1)c1cc2c(n(CC3CCCCC3)c1=O)CCCCCC2 (stereo not drawn) [Compound I-530] | – | 305 nM | – | < 2 nM | 7 nM | – | – | inhibition in vivo at 2 % ([1]; Mus musculus): 74%
29 | CSC(=O)C(C)(C)NC(=O)c1cc2c(n(CC3CCCCC3)c1=O)CCCCCC2 [Compound I-001, 2-[(1-cyclohexylmethyl-2-oxo-1,2,5,6,7,8,9,10-octahydro-cycloocta[b]pyridine-3-carbonyl)-amino]-2-methyl-thiopropionic acid S-methyl ester] | 53% | < 2 nM | – | < 2 nM | < 2 nM | – | – | –
30 | COCOC(=O)C(C)(C)NC(=O)c1cc2c(n(CC3CCCCC3)c1=O)CCCCCC2 [Compound I-306] | 83% | < 2 nM | – | < 2 nM | < 2 nM | – | – | –
31 | COC(=O)[C@@H](NC(=O)c1cc2c(n(CCCC#N)c1=O)CCCCCC2)C(C)C [Compound I-266] | – | 12 nM | – | < 2 nM | 12 nM | – | – | inhibition in vivo at 2 % ([1]; Mus musculus): 64%
